Laboratory results reported in US4281009A, “Hydantoin derivatives” (Nippon Zoki Pharmaceutical Co., Ltd., priority 1978, dated 1981).

Key:
[1] = tested on: normal mice and SART stress mice; assay: Analgesic effect, D'Amour-Smith method; format: in vivo, mice (ddY-strain male); conditions: for responders at 100 mg/kg / responders at 160 mg/kg: Mus musculus; for responders at 160 mg/kg: peroral 160 mg/kg; for Analgesic effect: peroral 50 mg/kg
Method in brief: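 ddY male normal mice and mice under 4-day SART stress (n=10/group); black-inked tail root irradiated with infrared rays (up to 15 s cutoff), escape latency recorded. Effect expressed as proportion of mice whose mean latency at 30, 60, 90 and 120 min post-dose was at least 2× pre-dose latency.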

[2] = tested on: ddY-strain male mice; assay: Effect of prolongation of sleeping time (hexobarbital); format: in vivo; conditions: for change in vivo at 100 mg/kg / change in vivo at 300 mg/kg: Mus musculus, ip; for change in vivo at 100 mg/kg: 100 mg/kg intraperitoneal; for change in vivo at 300 mg/kg: 300 mg/kg intraperitoneal
Method in brief: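 Groups of 10 male ddY mice received compounds intraperitoneally along with intraperitoneal sodium hexobarbital. Loss of righting reflex was timed, and prolongation was measured against control mice.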

[3] = tested on: spontaneously hypertensive rats (SHR); assay: Antihypertensive effect in spontaneously hypertensive rats; format: in vivo; conditions: 60 minutes
Protocol: 8. Antihypertensive effect: Groups of rats each comprising 6-9 spontaneously hypertensive rats (SHR) were used. The compounds of the present invention or DPH was given intraperitoneally. The rate of antihypertension 60 minutes after the administration was determined.

[4] = tested on: dd-strain male mice; assay: Inhibitory effect on Tremorine-induced tremor; format: in vivo; conditions: 100 mg/kg intraperitoneal; tremorine 10 mg/Kg
Protocol: 9. Inhibitory effect on Tremorine-induced tremor:
Groups of mice each comprising 10-40 dd-strain male mice were used. Effect of the compounds of the present invention on tremor caused by tremorine was examined. The compounds of the present invention or DPH was given intraperitoneally. 45 minutes thereafter, 10 mg/Kg of tremorine was given intraperitoneally for inducing the tremor.

[5] = ip, SART stress mice, intraperitoneal 100 mg/kg
[6] = ip, normal mice, intraperitoneal 100 mg/kg
[7] = po, SART stress mice, peroral 100 mg/kg
[8] = po, normal mice, peroral 100 mg/kg

SMILES | responders at 100 mg/kg [1, 5] | responders at 100 mg/kg [1, 6] | responders at 100 mg/kg [1, 7] | responders at 160 mg/kg ([1]; po, SART stress mice) | responders at 100 mg/kg [1, 8] | responders at 160 mg/kg ([1]; po, normal mice) | change in vivo at 100 mg/kg [2] | change in vivo at 300 mg/kg [2] | Rate of antihypertension ([3]; 150 mg/Kg intraperitoneal) | Inhibitory effect on Tremorine-induced tremor [4] | Analgesic effect ([1]; SART stress mice) | Analgesic effect ([1]; normal mice) | Effect of prolongation of sleeping time ([2]; 20 mg/kg intraperitoneal) | Effect of prolongation of sleeping time ([2]; 50 mg/kg intraperitoneal) | Rate of antihypertension ([3]; 100 mg/Kg intraperitoneal) | Rate of antihypertension ([3]; 300 mg/Kg intraperitoneal)
COc1ccc(C2(c3ccc(OC)c(Cl)c3)NC(=O)NC2=O)cc1 (stereo not shown) [Compound 2, 5-(3-chloro-4-methoxyphenyl)-5-(4-methoxyphenyl)hydantoin] | 50% | 30% | 30% | 60% | 10% | 30% | 55.9% | 248% | 22.4% | 38% |  |  |  |  |  | 
O=C1NC(=O)C(c2ccc(O)cc2)(c2ccc(O)cc2)N1 [Compound 4, 5,5-Bis(4-hydroxyphenyl)hydantoin] | 60% | 40% | 50% | 60% | 20% | 40% | 124% |  | 34.1% | 54% | 40% | 10% | 37.2% | 84.4% | 21.5% | 45.7%
O=C1NC(=O)C(c2cc(O)c(O)c(O)c2)(c2cc(O)c(O)c(O)c2)N1 [Compound 36, 5,5-Bis(3,4,5-trihydroxyphenyl)hydantoin] | 60% | 40% | 30% | 40% | 20% | 30% | 11.3% | 46.7% | 19.8% |  |  |  |  |  |  | 
